Measurements published in US20120214818A1, “METHODS OF TREATING DIASTOLIC DYSFUNCTION AND RELATED CONDITIONS” (THE BOARD OF TRUSTEES OF THE UNIVERSITY OF ILLINOIS, priority 2009, published 2012).
Several values for one entry are separate records, joined by “and”; a condition that tells them apart may be missing. Identical values can stand only once.

Key:
DOCA-salt and sham mice [1] = assay: Noninvasive echocardiographic assessment of diastolic dysfunction, acute ranolazine; type: in vivo, mouse; settings: 30 mg/kg ranolazine intraperitoneal; for E/A, early to late diastolic filling velocity / E/E′ / E′, early septal mitral annulus velocity (TDI) / E′/A′ / Sm, systolic septal mitral annulus velocity (TDI): 30 min; for EF, ejection fraction (Table 3) / FS, fractional shortening: echocardiogram 30 min later
Protocol: Generation of DOCA-salt mouse model: Previously, it was shown that this model leads to mild hypertension, myocardial oxidative stress, and diastolic dysfunction.^20 A gradual and mild elevation in blood pressure was induced by unilateral nephrectomy, subcutaneous implantation of a controlled release deoxycorticosterone acetate (DOCA) pellet (0.7 mg/d; Innovative Research of America, Sarasota, Fla.), and substituting drinking water with 1.05% saline. Control animals underwent a sham operation, had placebo pellet implantation, and received water without salt. Noninvasive assessment of diastolic dysfunction: Mice were anesthetized, maintained at 37° C., and studied by echocardiography (Vevo 770, VisualSonics Inc, Toronto, Canada). M-mode images in the parasternal long axis and the left ventricle (LV) short-axis views at the mid-papillary level. Measurements were averaged from three consecutive beats during expiration. LV inflow velocities (E and A waves) were interrogated by conventional pulsed-wave Doppler from the apical four-chamber view. The mitral annulus longitudinal velocities (Sm, E′, and A′) were determined by pulsed-wave tissue Doppler from the apical four-chamber view. Interpretation was done by two investigators blinded to the treatment groups. First, baseline images were acquired. Subsequently, the mice were injected with 30 mg/kg ranolazine by intraperitoneal route, followed by a second echocardiogram 30 min later. Previously, we have shown that this model leads to mild hypertension, myocardial oxidative stress, and diastolic dysfunction.^20 A gradual and mild elevation in blood pressure was induced by unilateral nephrectomy, subcutaneous implantation of a controlled release deoxycorticosterone acetate (DOCA) pellet (0.7 mg/d; Innovative Research of America, Sarasota, Fla.), and substituting drinking water with 1.05% saline. Control animals underwent a sham operation, had placebo pellet implantation, and received water without salt. Mice were anesthetized, maintained at 37° C., and studied by echocardiography (Vevo 770, VisualSonics Inc, Toronto, Canada). M-mode images in the parasternal long axis and the left ventricle (LV) short-axis views at the mid-papillary level were taken. Measurements were averaged from three consecutive beats during expiration. LV inflow velocities (E and A waves) were interrogated by conventional pulsed-wave Doppler from the apical four-chamber view. The mitral annulus longitudinal velocities (Sm, E′, and A′) were determined by pulsed-wave tissue Doppler from the apical four-chamber view. Interpretation was done by a two investigators blinded to the treatment groups. First, baseline images were acquired. Subsequently to determine the acute effect, the mice were injected with 30 mg/kg ranolazine by intraperitoneal route, followed by a second echocardiogram 30 min later.

DOCA-salt and sham mice [2] = assay: Invasive hemodynamic (pressure-volume catheter) assessment of diastolic dysfunction, acute ranolazine; type: in vivo, mouse; settings: for DBP, diastolic blood pressure / EDPVR, end diastolic pressure volume relationship (slope) / EF, ejection fraction (invasive) / ESPVR, end systolic pressure volume relationship / HR, heart rate / LVEDP, left ventricular end diastolic pressure / LVESP, left ventricular end systolic pressure / dP/dt max / dP/dt min: ranolazine 5 mg/kg i.v. then 4.8 mg/kg/h; for SBP, systolic blood pressure: ranolazine 5 mg/kg intravenous injection then infusion 4.8 mg/kg/h
Protocol: Generation of DOCA-salt mouse model: Previously, it was shown that this model leads to mild hypertension, myocardial oxidative stress, and diastolic dysfunction.^20 A gradual and mild elevation in blood pressure was induced by unilateral nephrectomy, subcutaneous implantation of a controlled release deoxycorticosterone acetate (DOCA) pellet (0.7 mg/d; Innovative Research of America, Sarasota, Fla.), and substituting drinking water with 1.05% saline. Control animals underwent a sham operation, had placebo pellet implantation, and received water without salt. Invasive assessment of diastolic dysfunction: Mice were anesthetized with 1-1.5% isoflurane and maintained at 37° C. The pressure-volume (PV) catheter was inserted into the right common carotid artery and advanced into the LV. […] Volume and parallel conductance calibration were performed as previously described.^20 Baseline hemodynamic measurements were obtained, and subsequently, the mice received an intravenous injection of ranolazine (5 mg/kg) followed by an infusion at 4.8 mg/kg/h, while additional hemodynamic measurements were recorded. Blood samples were obtained during the last five minutes of the procedure to determine the plasma ranolazine concentration. Previously, we have shown that this model leads to mild hypertension, myocardial oxidative stress, and diastolic dysfunction.^20 A gradual and mild elevation in blood pressure was induced by unilateral nephrectomy, subcutaneous implantation of a controlled release deoxycorticosterone acetate (DOCA) pellet (0.7 mg/d; Innovative Research of America, Sarasota, Fla.), and substituting drinking water with 1.05% saline. Control animals underwent a sham operation, had placebo pellet implantation, and received water without salt. Mice were anesthetized with 1-1.5% isoflurane and maintained at 37° C. The pressure-volume (PV) catheter was inserted into the right common carotid artery and advanced into the LV. […] Volume and parallel conductance calibration were performed as previously described.^20 Baseline hemodynamic measurements were obtained, and subsequently to determine the acute effect, the mice received an intravenous injection of ranolazine (5 mg/kg) followed by an infusion at 4.8 mg/kg/h, while additional hemodynamic measurements were recorded. Blood samples were obtained during the last five minutes of the procedure to determine the plasma ranolazine concentration.

Compound: COc1ccccc1OCC(O)CN1CCN(CC(=O)Nc2c(C)cccc2C)CC1 (centres unmarked) [ranolazine]
- E/A, early to late diastolic filling velocity (DOCA-salt and sham mice [1]; DOCA-salt mice): 1.62 ± 0.11
- E/E′ (DOCA-salt and sham mice [1]; DOCA-salt mice): 31.9 ± 2.6
- E′, early septal mitral annulus velocity (TDI) (DOCA-salt and sham mice [1]; DOCA-salt mice): 2.47 ± 0.18 cm/s
- E′/A′ (DOCA-salt and sham mice [1]; DOCA-salt mice): 1.31 ± 0.11
- Sm, systolic septal mitral annulus velocity (TDI) (DOCA-salt and sham mice [1]; DOCA-salt mice): 2.15 ± 0.14 cm/s
- EF, ejection fraction (Table 3) (DOCA-salt and sham mice [1]; DOCA-salt mice): 46.9 ± 1.6%
- FS, fractional shortening (DOCA-salt and sham mice [1]; DOCA-salt mice): 46.9 ± 1.6%
- E/A, early to late diastolic filling velocity (DOCA-salt and sham mice [1]; sham mice): 1.63 ± 0.07
- E/E′ (DOCA-salt and sham mice [1]; sham mice): 30.2 ± 1.9
- E′, early septal mitral annulus velocity (TDI) (DOCA-salt and sham mice [1]; sham mice): 2.67 ± 0.11 cm/s
- E′/A′ (DOCA-salt and sham mice [1]; sham mice): 1.16 ± 0.02
- Sm, systolic septal mitral annulus velocity (TDI) (DOCA-salt and sham mice [1]; sham mice): 2.31 ± 0.09 cm/s
- EF, ejection fraction (Table 3) (DOCA-salt and sham mice [1]; sham mice): 52.8 ± 0.8 %
- FS, fractional shortening (DOCA-salt and sham mice [1]; sham mice): 52.8 ± 0.8%
- Pearson correlation coefficient of EDPVR with serum/plasma ranolazine levels (DOCA-salt and sham mice [2]; DOCA-salt mice, n=6, p<0.05): 0.70
- DBP, diastolic blood pressure (DOCA-salt and sham mice [2]; DOCA-salt mice): 73 ± 2 mmHg
- EDPVR, end diastolic pressure volume relationship (slope) (DOCA-salt and sham mice [2]; DOCA-salt mice): 0.17±0.01 mmHg/μL
- EF, ejection fraction (invasive) (DOCA-salt and sham mice [2]; DOCA-salt mice): 67 ± 4%
- ESPVR, end systolic pressure volume relationship (DOCA-salt and sham mice [2]; DOCA-salt mice): 4.1 ± 0.2 mmHg/μL
- HR, heart rate (DOCA-salt and sham mice [2]; DOCA-salt mice): 588 ± 16 bpm
- LVEDP, left ventricular end diastolic pressure (DOCA-salt and sham mice [2]; DOCA-salt mice): 3.5±0.4 mmHg and 3.6 ± 0.4 mmHg
- LVESP, left ventricular end systolic pressure (DOCA-salt and sham mice [2]; DOCA-salt mice): 98 ± 3 mmHg
- dP/dt max (DOCA-salt and sham mice [2]; DOCA-salt mice): 12,495 ± 555 mmHg/sec
- dP/dt min (DOCA-salt and sham mice [2]; DOCA-salt mice): −12,211 ± 792 mmHg/sec
- SBP, systolic blood pressure (DOCA-salt and sham mice [2]; DOCA-salt mice): 102 ± 3 mmHg
- DBP, diastolic blood pressure (DOCA-salt and sham mice [2]; sham mice): 58 ± 2 mmHg
- EDPVR, end diastolic pressure volume relationship (slope) (DOCA-salt and sham mice [2]; sham mice): 0.18±0.01 mmHg/μL
- EF, ejection fraction (invasive) (DOCA-salt and sham mice [2]; sham mice): 73 ± 5%
- ESPVR, end systolic pressure volume relationship (DOCA-salt and sham mice [2]; sham mice): 3.9 ± 0.5 mmHg/μL
- HR, heart rate (DOCA-salt and sham mice [2]; sham mice): 620 ± 5 bpm
- LVEDP, left ventricular end diastolic pressure (DOCA-salt and sham mice [2]; sham mice): 4.2 ± 0.5 mmHg
- LVESP, left ventricular end systolic pressure (DOCA-salt and sham mice [2]; sham mice): 84 ± 3 mmHg and 85 ± 3 mmHg
- dP/dt max (DOCA-salt and sham mice [2]; sham mice): 12,032 ± 787 mmHg/sec
- dP/dt min (DOCA-salt and sham mice [2]; sham mice): −10,083 ± 685 mmHg/sec
- SBP, systolic blood pressure (DOCA-salt and sham mice [2]; sham mice): 93 ± 3 mmHg
